Laboratory results taken from the supplement of paper PMC10307832.

Key:
Experiment in all cases: relative viability (nuclei count vs DMSO), 5 days (fraction); higher = more cells survive
Selisistat + Tozasertib = compound: C1CC(C2=C(C1)C3=C(N2)C=CC(=C3)Cl)C(=O)N [Selisistat] + Cc1cc(Nc2cc(N3CCN(C)CC3)nc(Sc3ccc(NC(=O)C4CC4)cc3)n2)n[nH]1 [Tozasertib] (partner 0.1 µM)
Outline: (§1)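 The day after seeding in 1536-well plates, lung cancer cell lines were treated by pin tool with a single drug, or with a fixed anchor-drug dose together with five library-drug doses (not always all listed) in √10 steps. After 5 days, a combined fix-and-stain solution (final 0.05% Triton X-100, 1% formaldehyde, 1 ug/ml Hoechst) was added. Nuclei counted on 4× images gave relative viability as treated counts over vehicle counts, reported as the median of duplicate plates.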

Selisistat + Olaparib = compound: C1CC(C2=C(C1)C3=C(N2)C=CC(=C3)Cl)C(=O)N [Selisistat] + O=C(c1cc(Cc2n[nH]c(=O)c3ccccc23)ccc1F)N1CCN(C(=O)C2CC2)CC1 [Olaparib] (partner 8 µM)
Outline: as §1

Selisistat + Bortezomib = compound: C1CC(C2=C(C1)C3=C(N2)C=CC(=C3)Cl)C(=O)N [Selisistat] + CC(C)C[C@H](NC(=O)[C@H](Cc1ccccc1)NC(=O)c1cnccn1)B(O)O [Bortezomib] (partner 0.002 µM)
Outline: as §1

Selisistat + Lapatinib = compound: C1CC(C2=C(C1)C3=C(N2)C=CC(=C3)Cl)C(=O)N [Selisistat] + CS(=O)(=O)CCNCc1ccc(-c2ccc3ncnc(Nc4ccc(OCc5cccc(F)c5)c(Cl)c4)c3c2)o1 [Lapatinib] (partner 2 µM)
Outline: as §1

Row | Cell Line | relative viability (Selisistat + Tozasertib; first compound 0.4 µM) | relative viability (Selisistat + Tozasertib; first compound 1.265 µM) | relative viability (Selisistat + Tozasertib; first compound 4 µM) | relative viability (Selisistat + Tozasertib; first compound 12.65 µM) | relative viability (Selisistat + Tozasertib; first compound 40 µM) | relative viability (Selisistat + Olaparib; first compound 0.4 µM) | relative viability (Selisistat + Olaparib; first compound 1.265 µM) | relative viability (Selisistat + Olaparib; first compound 4 µM) | relative viability (Selisistat + Olaparib; first compound 12.65 µM) | relative viability (Selisistat + Olaparib; first compound 40 µM) | relative viability (Selisistat + Bortezomib; first compound 0.4 µM) | relative viability (Selisistat + Bortezomib; first compound 1.265 µM) | relative viability (Selisistat + Bortezomib; first compound 12.65 µM) | relative viability (Selisistat + Bortezomib; first compound 40 µM) | relative viability (Selisistat + Lapatinib; first compound 0.4 µM) | relative viability (Selisistat + Lapatinib; first compound 1.265 µM) | relative viability (Selisistat + Lapatinib; first compound 12.65 µM) | relative viability (Selisistat + Lapatinib; first compound 40 µM) | relative viability (Selisistat + Bortezomib; first compound 4 µM) | relative viability (Selisistat + Lapatinib; first compound 4 µM)
1 | NCI-H522 | 0.569 | 0.593 | 0.509 | 0.608 | 0.52 | 0.574 | 0.766 | 0.634 | 0.553 | 0.519 |  |  |  |  |  |  |  |  |  | 
2 | HCC-15 | 0.407 | 0.375 |  | 0.311 | 0.252 | 0.822 | 0.712 | 0.855 | 0.675 | 0.743 | 1.09 | 1.03 | 1.04 | 1.29 | 0.878 | 0.864 | 0.867 | 1.01 |  | 
3 | A-427 | 0.207 | 0.194 | 0.182 | 0.226 | 0.183 | 0.853 | 0.779 |  | 0.829 | 0.692 | 1.02 | 0.981 | 1.02 | 0.952 | 1.03 | 1.02 | 0.879 | 1.12 | 1.01 | 0.98
4 | NCI-H2228 | 0.315 | 0.223 | 0.29 | 0.315 | 0.217 | 0.637 | 0.656 | 0.523 | 0.741 | 0.702 | 1.01 | 1.01 | 0.923 | 1 | 0.99 | 1.2 | 0.868 | 1.07 | 0.971 | 1.31
5 | NCI-H1734 | 0.278 | 0.265 | 0.283 | 0.263 | 0.228 | 0.667 | 0.553 | 0.731 | 0.583 | 0.658 | 0.902 | 0.879 | 1.1 | 0.869 | 1.03 | 1.04 | 1.02 | 1.16 | 0.946 | 1.17
6 | PC-14 | 0.649 | 0.563 | 0.522 | 0.581 | 0.656 | 0.252 | 0.201 | 0.186 | 0.204 | 0.29 | 0.848 | 0.713 | 0.886 | 0.888 | 0.371 | 0.356 | 0.294 | 0.342 | 0.861 | 0.218
7 | NCI-H1915 | 0.436 | 0.41 | 0.374 | 0.339 | 0.41 | 0.329 | 0.26 | 0.25 | 0.252 | 0.304 | 1.03 | 0.943 | 1.02 | 1 | 0.967 | 0.969 | 0.897 | 1.02 | 0.953 | 0.918
8 | NCI-H1666 | 0.631 | 0.591 | 0.594 | 0.589 | 0.541 | 0.798 | 0.763 | 0.745 | 0.811 | 0.631 | 1.07 | 0.797 | 0.739 | 0.547 | 0.751 | 0.574 | 0.589 | 0.472 | 0.612 | 0.437
9 | HCC-366 | 0.0912 | 0.131 | 0.064 | 0.0918 | 0.0529 | 0.306 | 0.344 | 0.359 | 0.364 | 0.387 | 1.07 | 1.02 | 0.98 | 1.02 | 1.09 | 0.977 | 0.971 | 1.07 | 0.955 | 0.899
10 | SK-MES-1 | 0.977 | 0.869 | 0.954 | 0.829 | 0.948 | 0.769 | 0.717 | 0.823 | 0.736 | 0.809 |  |  |  |  | 0.479 | 0.525 | 0.504 | 0.426 |  | 0.411
11 | SW 1573 | 0.206 | 0.175 | 0.175 | 0.206 | 0.184 | 0.4 | 0.462 | 0.505 | 0.639 | 0.505 | 1.19 | 1.02 | 1.02 | 1.03 | 1.14 | 1.02 | 1.04 | 1.12 | 1.03 | 1.02
12 | NCI-H661 | 0.353 | 0.354 | 0.379 | 0.352 | 0.352 | 0.739 | 0.713 | 0.781 | 0.667 | 0.577 | 0.858 | 0.816 | 0.701 | 0.704 | 0.515 | 0.469 | 0.396 | 0.535 | 0.664 | 0.502
13 | PC-3 [JPC-3] | 0.917 | 0.853 | 0.82 | 0.857 | 0.915 | 1.13 | 1.1 |  | 1.02 | 1.07 | 0.796 | 0.788 | 0.81 | 0.885 | 0.439 | 0.457 | 0.487 | 0.417 | 0.828 | 0.398
14 | NCI-H1623 | 0.445 | 0.433 | 0.355 | 0.407 | 0.405 |  |  |  |  |  |  |  |  |  |  |  |  |  |  | 
15 | Calu-6 |  |  |  |  |  | 0.561 | 0.572 | 0.634 | 0.552 | 0.617 | 0.998 | 0.961 | 0.902 | 0.932 | 1.06 | 1.09 | 0.949 | 0.895 | 0.992 | 1.02
